From patent US20080234262A1 (Wyeth, priority 2007, published 2008)

Legend:
PI3K = PI3K (Homo sapiens, UniProt P42336); experiment: Fluorescence polarization assay for PI3K; assay type: biochemical; settings: PI3Kα; read-out: PI3Kα IC50;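 also: PI3K kinase reaction on PIP2 with ATP, 30-60 min, product sensed by GST-GRP with red probe in fluorescence polarization (mP), controls without enzyme and at zero time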
breast line MDA468 = experiment: In vitro cell culture growth assay (MTS), MDA468; assay type: cell-based, human; settings: MDA468 cells, three days after drug treatment
How it was run: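 Three-day drug treatment starting 1 day post-plating; viable cells quantified via MTS metabolism (A490); effect normalised to in-plate vehicle controls as % growth.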

prostate line LNCap = experiment: In vitro cell culture growth assay (MTS), LNCap; assay type: cell-based, human; settings: LNCap cells, three days after drug treatment;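 also: viable cell density read by absorbance at 490 nm, growth expressed as percent of vehicle-treated cells on the same plate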

Sequence of PI3K (P42336 whole entry): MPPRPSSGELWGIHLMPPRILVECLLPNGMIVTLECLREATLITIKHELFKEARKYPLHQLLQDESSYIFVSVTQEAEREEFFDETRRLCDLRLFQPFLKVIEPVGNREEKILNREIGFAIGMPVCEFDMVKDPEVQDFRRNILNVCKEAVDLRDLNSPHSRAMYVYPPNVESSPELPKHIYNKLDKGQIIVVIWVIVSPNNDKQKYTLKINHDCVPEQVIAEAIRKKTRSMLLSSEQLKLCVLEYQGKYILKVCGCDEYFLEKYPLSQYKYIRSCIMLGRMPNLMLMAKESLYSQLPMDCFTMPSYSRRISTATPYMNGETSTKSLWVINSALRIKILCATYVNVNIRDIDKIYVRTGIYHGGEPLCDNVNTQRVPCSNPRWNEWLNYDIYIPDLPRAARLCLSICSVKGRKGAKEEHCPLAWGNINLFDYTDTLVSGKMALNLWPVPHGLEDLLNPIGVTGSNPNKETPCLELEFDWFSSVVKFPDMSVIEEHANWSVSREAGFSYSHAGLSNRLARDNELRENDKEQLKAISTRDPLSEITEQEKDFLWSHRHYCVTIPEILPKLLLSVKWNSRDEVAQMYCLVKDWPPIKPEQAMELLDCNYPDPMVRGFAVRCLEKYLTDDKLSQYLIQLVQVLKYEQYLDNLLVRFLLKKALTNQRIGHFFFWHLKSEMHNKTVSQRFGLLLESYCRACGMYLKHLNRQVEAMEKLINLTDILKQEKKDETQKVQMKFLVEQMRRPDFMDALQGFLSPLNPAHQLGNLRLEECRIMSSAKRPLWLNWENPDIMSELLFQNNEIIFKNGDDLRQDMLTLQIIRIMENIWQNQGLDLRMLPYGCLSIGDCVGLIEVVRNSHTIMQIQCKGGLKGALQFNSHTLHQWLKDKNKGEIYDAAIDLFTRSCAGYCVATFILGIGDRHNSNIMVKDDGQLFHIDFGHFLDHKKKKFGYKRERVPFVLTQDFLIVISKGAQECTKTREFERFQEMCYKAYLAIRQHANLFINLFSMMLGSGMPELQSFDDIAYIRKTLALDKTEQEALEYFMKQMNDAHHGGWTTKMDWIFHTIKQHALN
Sequence of PI3K (P27986 whole entry partner): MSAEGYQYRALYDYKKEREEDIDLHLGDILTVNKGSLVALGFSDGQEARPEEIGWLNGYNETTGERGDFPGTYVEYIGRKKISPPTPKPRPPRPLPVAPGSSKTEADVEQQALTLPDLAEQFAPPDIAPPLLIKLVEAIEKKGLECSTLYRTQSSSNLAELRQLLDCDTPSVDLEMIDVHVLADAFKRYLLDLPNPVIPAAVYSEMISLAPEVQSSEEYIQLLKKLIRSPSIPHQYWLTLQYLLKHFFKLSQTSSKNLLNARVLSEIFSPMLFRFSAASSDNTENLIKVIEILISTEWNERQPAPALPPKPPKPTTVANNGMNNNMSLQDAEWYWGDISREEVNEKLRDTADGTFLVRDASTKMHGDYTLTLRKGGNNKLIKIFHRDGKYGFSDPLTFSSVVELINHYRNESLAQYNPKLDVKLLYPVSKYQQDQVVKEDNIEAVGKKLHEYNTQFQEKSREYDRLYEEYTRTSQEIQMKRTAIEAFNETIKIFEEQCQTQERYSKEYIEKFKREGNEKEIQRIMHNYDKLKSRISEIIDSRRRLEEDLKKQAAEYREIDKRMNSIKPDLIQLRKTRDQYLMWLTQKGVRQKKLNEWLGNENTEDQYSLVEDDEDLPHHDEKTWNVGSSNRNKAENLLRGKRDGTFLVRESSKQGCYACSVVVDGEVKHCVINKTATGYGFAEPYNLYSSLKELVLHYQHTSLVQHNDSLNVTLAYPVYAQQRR

| IC50 (PI3K) [nM] | IC50 (prostate line LNCap; Homo sapiens, LNCaP, 72 h) [nM] | IC50 (prostate line LNCap) [nM] | SMILES | IC50 (breast line MDA468; Homo sapiens, 72 h) [nM] | IC50 (breast line MDA468) [nM] |
| --- | --- | --- | --- | --- | --- |
| 352 | 1000 |  | COc1ccc(CN2CCC(n3ncc4c(N5CCOCC5)nc(-c5ccc6[nH]ccc6c5)nc43)CC2)cn1 [Compound 176] | 2600 |  |
| 48 | 80 |  | O=C(Nc1ccncc1)Nc1ccc(-c2nc(N3CCOCC3)c3cnn(C4CCN(CC(F)(F)F)CC4)c3n2)cc1 [Compound 786, 1-(4-{4-morpholin-4-yl-1-[1-(2,2,2-trifluoroethyl)piperidin-4-yl]-1H-pyrazolo[3,4-d]pyrimidin-6-yl}phenyl)-3-pyridin-4-ylurea] | 1100 |  |
| 107 | < 23 |  | COC(=O)N1CCC(n2ncc3c(N4CCOCC4)nc(-c4ccc(NC(=O)Nc5ccc(F)nc5)cc4)nc32)CC1 [Compound 862, methyl 4-[6-(4-{[(6-fluoropyridin-3-yl)carbamoyl]amino}phenyl)-4-morpholin-4-yl-1H-pyrazolo[3,4-d]pyrimidin-1-yl]piperidine-1-carboxylate] | < 88.5 |  |
| 385 | 700 |  | O=C(NCC1CC1)Nc1ccc(-c2nc(N3CCOCC3)c3cnn(C4CCN(Cc5ccccc5)CC4)c3n2)cc1 [Example 262, 1-{4-[1-(1-benzylpiperidin-4-yl)-4-morpholin-4-yl-1H-pyrazolo[3,4-d]pyrimidin-6-yl]phenyl}-3-(cyclopropylmethyl)urea] | 3000 |  |
| 53 | 27 |  | CNC(=O)Nc1ccc(-c2nc(N3CCOCC3)c3cnn(C4CCN(C(=O)c5cccc(Cl)c5)CC4)c3n2)cc1 [Example 358, 1-(4-{1-[1-(3-chlorobenzoyl)piperidin-4-yl]-4-morpholin-4-yl-1H-pyrazolo[3,4-d]pyrimidin-6-yl}phenyl)-3-methylurea] | 100 |  |
| 3750 | 800 |  | COCC(=O)N1CCC(n2ncc3c(N4CCOCC4)nc(-c4ccc5[nH]ccc5c4)nc32)CC1 [Example 40] | 900 |  |
| 38 | < 27 |  | CCCOC(=O)N1CCC(n2ncc3c(N4CCOCC4)nc(-c4ccc(NC(=O)Nc5cccnc5)cc4)nc32)CC1 [Compound 850, propyl 4-(4-morpholin-4-yl-6-{4-[(pyridin-3-ylcarbamoyl)amino]phenyl}-1H-pyrazolo[3,4-d]pyrimidin-1-yl)piperidine-1-carboxylate] | 120 |  |
| 89 | 150 |  | CNC(=O)Nc1ccc(-c2nc(N3CCOCC3)c3cnn(C4CCN(C(=O)c5ccc(C#N)cc5)CC4)c3n2)cc1 [Compound 614, 1-(4-{1-[1-(4-cyanobenzoyl)piperidin-4-yl]-4-morpholin-4-yl-1H-pyrazolo[3,4-d]pyrimidin-6-yl}phenyl)-3-methylurea] | 220 |  |
| 33 | 220 |  | COc1ccc(C(=O)N2CCC(n3ncc4c(N5CCOCC5)nc(-c5cccc(O)c5)nc43)CC2)cc1 [Compound 28, 3-{1-[1-(4-methoxybenzoyl)piperidin-4-yl]-4-morpholin-4-yl-1H-pyrazolo[3,4-d]pyrimidin-6-yl}phenol] | 1100 |  |
| 1850 | 33000 |  | c1cc2cc(-c3nc(N4CCOCC4)c4cnn(CCN5CCNCC5)c4n3)ccc2[nH]1 [Compound 162, 6-(1H-indol-5-yl)-4-morpholin-4-yl-1-(2-piperazin-1-ylethyl)-1H-pyrazolo[3,4-d]pyrimidine] | 60000 |  |
| 2670 | 510 |  | CCOC(=O)N1CCC(n2ncc3c(N4CCOCC4)nc(-c4ccc(NC(=O)OC)cc4)nc32)CC1 [Compound 805, ethyl 4-(6-{4-[(methoxycarbonyl)amino]phenyl}-4-morpholin-4-yl-1H-pyrazolo[3,4-d]pyrimidin-1-yl)piperidine-1-carboxylate] | 800 |  |
| 37 | 60 |  | CNC(=O)Nc1ccc(-c2nc(N3CCOCC3)c3cnn(C4CCN(Cc5ccccc5O)CC4)c3n2)cc1 [Example 399, 1-(4-{1-[1-(2-hydroxybenzyl)piperidin-4-yl]-4-morpholin-4-yl-1H-pyrazolo[3,4-d]pyrimidin-6-yl}phenyl)-3-methylurea] | 300 |  |
| 26 | 2800 |  | O=C(Nc1ccc(-c2nc(N3CCOCC3)c3cnn(C4CCNCC4)c3n2)cc1)Nc1cccnc1 [Compound 779, 1-[4-(4-morpholin-4-yl-1-piperidin-4-yl-1H-pyrazolo[3,4-d]pyrimidin-6-yl)phenyl]-3-pyridin-3-ylurea] | 900 |  |
| 68 | 1300 |  | O=C(C1CCCCC1)N1CCC(n2ncc3c(N4CCOCC4)nc(-c4cccc(O)c4)nc32)CC1 [Example 26] | 4000 |  |
| 88 | < 27 |  | CNC(=O)Nc1ccc(-c2nc(N3CCOCC3)c3cnn(C4CCN(C(=O)c5cccc(F)c5)CC4)c3n2)cc1 [Compound 603, 1-(4-{1-[1-(3-fluorobenzoyl)piperidin-4-yl]-4-morpholin-4-yl-1H-pyrazolo[3,4-d]pyrimidin-6-yl}phenyl)-3-methylurea] | 80 |  |
| 509 | 550 |  | c1ccc(CN2CCC(n3ncc4c(N5CCOCC5)nc(-c5ccc6[nH]ccc6c5)nc43)CC2)nc1 [Compound 178] | 2100 |  |

| IC50 (PI3K) [nM] | IC50 (prostate line LNCap; Homo sapiens, LNCaP, 72 h) [nM] | IC50 (prostate line LNCap) [nM] | SMILES | IC50 (breast line MDA468; Homo sapiens, 72 h) [nM] | IC50 (breast line MDA468) [nM] |
| --- | --- | --- | --- | --- | --- |
| 619 | 140 |  | O=C(NCCF)Nc1ccc(-c2nc(N3CCOCC3)c3cnn(C4CCN(Cc5cccnc5)CC4)c3n2)cc1F [Example 374, 1-(2-fluoroethyl)-3-(2-fluoro-4-{4-morpholin-4-yl-1-[1-(pyridin-3-ylmethyl)piperidin-4-yl]-1H-pyrazolo[3,4-d]pyrimidin-6-yl}phenyl)urea] | 1300 |  |
| 16 | < 27 |  | O=C(Nc1ccccc1)Nc1ccc(-c2nc(N3CCOCC3)c3cnn(C4CCN(C(=O)c5ccccc5)CC4)c3n2)cc1 [Compound 623, 1-{4-[1-(1-benzoylpiperidin-4-yl)-4-morpholin-4-yl-1H-pyrazolo[3,4-d]pyrimidin-6-yl]phenyl}-3-phenylurea] | 50 |  |
| 100 | 2800 |  | O=C(CCN1CCCCC1)Nc1ccc(-c2nc(N3CCOCC3)c3cnn(-c4ccccc4)c3n2)cc1 [Compound 137] | 1200 |  |
| 541 | 630 |  | O=C(NCCF)Nc1ccc(-c2nc(N3CCOCC3)c3cnn(C4CCN(C(=O)c5cccnc5)CC4)c3n2)cc1 [Example 303, 1-(2-fluoroethyl)-3-(4-{4-morpholin-4-yl-1-[1-(pyridin-3-ylcarbonyl)piperidin-4-yl]-1H-pyrazolo[3,4-d]pyrimidin-6-yl}phenyl)urea] | 500 |  |
| 885 | 1300 |  | COc1ncccc1CN1CCC(n2ncc3c(N4CCOCC4)nc(-c4ccc5[nH]ccc5c4)nc32)CC1 [Compound 177] | 3100 |  |
| 18 | 310 |  | CCn1ncc2c(N3CCOCC3)nc(-c3cccc(O)c3)nc21 [Compound 97] | 1300 |  |
| 520 | 9500 |  | c1ccc(CN2CCC(n3ncc4c(N5CCOCC5)nc(-c5cccc6cc[nH]c56)nc43)CC2)cc1 [Example 72] | 6000 |  |
| 3060 | 2500 |  | O=C(c1ccc[n+]([O-])c1)N1CCC(n2ncc3c(N4CCOCC4)nc(-c4ccc5[nH]ccc5c4)nc32)CC1 [Compound 197] | 3800 |  |
| 21 | 130 |  | COc1ccc(CN2CCC(n3ncc4c(N5CCOCC5)nc(-c5cccc(O)c5)nc43)CC2)cc1O [Example 20] | 700 |  |
| 557 | 30 |  | COC(=O)N1CCC(n2ncc3c(N4CCOCC4)nc(-c4ccc(NC(=O)OCCO)cc4)nc32)CC1 [Compound 901, methyl 4-[6-(4-{[(2-hydroxyethoxy)carbonyl]amino}phenyl)-4-morpholin-4-yl-1H-pyrazolo[3,4-d]pyrimidin-1-yl]piperidine-1-carboxylate] | 280 |  |
| 132 | 700 |  | S=C(Nc1cccnc1)N1CCC(n2ncc3c(N4CCOCC4)nc(-c4ccc5[nH]ccc5c4)nc32)CC1 [Compound 122, 4-[6-(1H-indol-5-yl)-4-morpholin-4-yl-1H-pyrazolo[3,4-d]pyrimidin-1-yl]-N-pyridin-3-ylpiperidine-1-carbothioamide] | 1300 |  |
| 153 | 50 |  | CNC(=S)Nc1ccc(-c2nc(N3CCOCC3)c3cnn(C4CCN(C(=O)OC)CC4)c3n2)cc1 [Compound 742, methyl 4-[6-(4-{[(methylamino)carbonothioyl]amino}phenyl)-4-morpholin-4-yl-1H-pyrazolo[3,4-d]pyrimidin-1-yl]piperidine-1-carboxylate] | 220 |  |
| > 10000 | 1300 |  | COC(=O)N1CCC(n2ncc3c(N4CCOCC4)nc(-c4ccc(NC(=O)OCC(F)(F)F)cc4)nc32)CC1 [Compound 908, methyl 4-[4-morpholin-4-yl-6-(4-{[(2,2,2-trifluoroethoxy)carbonyl]amino}phenyl)-1H-pyrazolo[3,4-d]pyrimidin-1-yl]piperidine-1-carboxylate] | 17000 |  |
| 224 |  | 800 | CNC(=O)Nc1ccc(-c2nc(N3CCOCC3)c3cnn(C4CCN(C(C)=O)CC4)c3n2)cc1 [Compound 716, 1-{4-[1-(1-acetylpiperidin-4-yl)-4-morpholin-4-yl-1H-pyrazolo[3,4-d]pyrimidin-6-yl]phenyl}-3-methylurea] |  | 1200 |
| 36 |  | 60 | CNC(=O)Nc1ccc(-c2nc(N3CCOCC3)c3cnn(C4CCN(Cc5ccccc5O)CC4)c3n2)cc1 [Compound 644, 1-(4-{1-[1-(2-hydroxybenzyl)piperidin-4-yl]-4-morpholin-4-yl-1H-pyrazolo[3,4-d]pyrimidin-6-yl}phenyl)-3-methylurea] |  | 320 |
